# Experimental data taken from patent publication US5385884A, “Lipopeptide derivatives” (Merck & Co. Inc., priority 1991, dated 1995).
# Key:
# [1] = test system: Pneumocystis carinii; experiment: Pneumocystis carinii pneumonia in immunosuppressed rats; assay type: in vivo, Sprague-Dawley rats; settings: intraperitoneally (I.P.) twice daily for four days
# Description: In a representative study, the effectiveness of Compound A-la was determined. Sprague-Dawley rats (weighing approximately 250 grams) were immunosuppressed with dexasone in the drinking water (2.0 mg/L) and maintained on a low protein diet for five weeks to induce the development of pneumocystis pneumonia from a latent infection. […] Six rats (weighing approximately 150 grams) were injected twice daily for four days intravenously (I.V.) via the tail vein with Compound A-la in 0.25 ml of vehicle (distilled water). A vehicle control was also carried out. All animals continued to receive dexasone in the drinking water and low protein diet during the treatment period. At the completion of the treatment, all animals were sacrificed, the lungs were removed and processed, and the extent of disease determined by microscopic analysis of stained slides.
# In a similar experiment, except that the rats were injected intraperitoneally (I.P.) twice daily for four days, the animals were sacrificed, the lungs removed and processed, and the extent of disease determined by microscopic analysis of stained slides.
# [2] = test system: C. albicans; experiment: Minimum fungicidal concentration, microbroth dilution assay in YNBD; assay type: cell-based
# Description: The minimum inhibitory concentrations (MICs) were recorded as the lowest concentrations of drug showing no visible growth.
# After recording the MIC, the plates were shaken to resuspend the cells. […] The MFC is defined as the lowest concentration of drug showing no growth or less than 4 colonies per spot.
substance,measurement,setting,value
"1-[4-hydroxy-N2-(10,12-dimethyl-1-oxotetradecyl)-ornithine]-4-[3-hydroxy-4' -O-phosphoryl-homotyrosine]-5-[3-hydroxyglutamine]-6-[3-hydroxyproline]echi nocandin B disodium salt [Compound A-2a]",ED90 for eliminating P. carinii cysts,[1],approximately 0.6 mg/kg
same,Minimum Fungicidal Concentration,[2]; C. albicans MY 1028,2 µg/mL
same,Minimum Fungicidal Concentration,[2]; C. albicans MY 1208,2 µg/mL
